EC50 data for 20 compounds are collected here from US12091404B2 (Gilead Sciences, Inc., priority 2021, dated 2024).

By pEC50 is commonly meant the negative decadic logarithm of the EC50, by convention in mol/L.

Structures are written as SMILES. pEC50: −log10 of the molar value.

The target of the first assay is T1, GLP-1R (Homo sapiens, UniProt P43220). The assay can be described thus: GLP-1R Activation - cAMP Assay 2. It is filed as cell-based.
T1 sequence (P43220 24-463): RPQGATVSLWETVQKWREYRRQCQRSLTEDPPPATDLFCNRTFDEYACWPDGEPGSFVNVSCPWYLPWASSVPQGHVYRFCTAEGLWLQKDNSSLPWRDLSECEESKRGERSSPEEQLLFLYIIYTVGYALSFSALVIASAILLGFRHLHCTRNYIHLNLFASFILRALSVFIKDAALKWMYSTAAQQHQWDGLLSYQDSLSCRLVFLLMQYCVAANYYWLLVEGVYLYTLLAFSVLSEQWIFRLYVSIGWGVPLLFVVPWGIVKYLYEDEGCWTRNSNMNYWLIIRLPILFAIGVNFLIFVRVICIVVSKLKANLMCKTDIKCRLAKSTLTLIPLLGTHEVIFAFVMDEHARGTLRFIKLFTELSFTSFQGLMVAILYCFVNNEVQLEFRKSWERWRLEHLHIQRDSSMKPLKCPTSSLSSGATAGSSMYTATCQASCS
Conditions: not given
The protocol:
GLP-1R Activation—cAMP Assay 2 GLP-1R activation by small molecule agonists is quantified by measuring cAMP increase in CHO cells stably expressing GLP-1R (MultiSpan product #C1267-1a). 50 nL of agonists are pre-spotted in a 10-point dose response onto 384-well plate (Corning product #CL3826) using the Labcyte Echo System. […] The cells are then incubated for 30 minutes at 37° C., 5% CO2. cAMP concentration increase is then detected using Cisbio's cAMP Gs Dynamic Kit (product #62AM4PEC) according to the manufacturer's protocol. The response is plotted against the log of the agonist concentration and fitted to a sigmoidal equation to determine the EC50.
Compound `N#Cc1ccc(COc2cccc(C3CCN(Cc4nc5ccc(C(=O)O)cc5n4C[C@@H]4CCO4)CC3)n2)s1` [Example 6, (S)-2-((4-(6-((5-cyanothiophen-2-yl)methoxy)pyridin-2-yl)piperidin-1-yl)methyl)-1-(oxetan-2-ylmethyl)-1H-benzo[d]imidazole-6-carboxylic acid] had a negative logarithm of the EC50 (pEC50) of 9.05.

Still in this assay, the particulars now being: cAMP increase in CHO cells stably expressing GLP-1R; pre-spotted agonists, assay buffer or 100% Human Plasma (not stated which), 30 minutes at 37° C.; read-out: GLP-1R Activation- Assay 2 EC50 (nm).
Turning to `NC(=O)c1ccc(COc2cccc(C3CCN(Cc4nc5ccc(C(=O)O)cc5n4C[C@@H]4CCO4)CC3)n2)s1` [Example 7, (S)-2-((4-(6-((5-carbamoylthiophen-2-yl)methoxy)pyridin-2-yl)piperidin-1-yl)methyl)-1-(oxetan-2-ylmethyl)-1H-benzo[d]imidazole-6-carboxylic acid], the negative logarithm of the EC50 (pEC50) was 7.44. On the same count and under the same terms, next, `O=C(O)c1ccc2nc(CN3CCC(c4cccc(OCc5nc(C(F)(F)F)cs5)n4)CC3)n(C[C@@H]3CCO3)c2c1` [Example 15, (S)-1-(oxetan-2-ylmethyl)-2-((4-(6-((4-(trifluoromethyl)thiazol-2-yl)methoxy)pyridin-2-yl)piperidin-1-yl)methyl)-1H-benzo[d]imidazole-6-carboxylic acid]: 8.28; `Cn1ccc(COc2cccc(C3CCN(Cc4nc5ccc(C(=O)O)cc5n4C[C@@H]4CCO4)CC3)n2)n1` [Example 5, (S)-2-((4-(6-((1-methyl-1H-pyrazol-3-yl)methoxy)pyridin-2-yl)piperidin-1-yl)methyl)-1-(oxetan-2-ylmethyl)-1H-benzo[d]imidazole-6-carboxylic acid]: < 7.00; `O=C(O)c1ccc2nc(CN3CCC(c4cccc(OCc5ccn(C(F)F)n5)n4)CC3)n(C[C@@H]3CCO3)c2c1` [Example 8, (S)-2-((4-(6-((1-(difluoromethyl)-1H-pyrazol-3-yl)methoxy)pyridin-2-yl)piperidin-1-yl)methyl)-1-(oxetan-2-ylmethyl)-1H-benzo[d]imidazole-6-carboxylic acid]: 7.67. Still for that read-out and setting: for `O=C(O)c1ccc2nc(CN3CCC(c4cccc(OCc5ncc(C(F)(F)F)s5)n4)CC3)n(C[C@@H]3CCO3)c2c1` [Example 14, (S)-1-(oxetan-2-ylmethyl)-2-((4-(6-((5-(trifluoromethyl)thiazol-2-yl)methoxy)pyridin-2-yl)piperidin-1-yl)methyl)-1H-benzo[d]imidazole-6-carboxylic acid] the value was 8.74; for `Cn1cc(C#Cc2ccc(COc3cccc(C4CCN(Cc5nc6ccc(C(=O)O)cc6n5C[C@@H]5CCO5)CC4)n3)s2)cn1` [Example 9, 2-[[4-[6-[[5-[2-(1-methylpyrazol-4-yl)ethynyl]-2-thienyl]methoxy]-2-pyridyl]-1-piperidyl]methyl]-3-[[(2S)-oxetan-2-yl]methyl]benzimidazole-5-carboxylic acid], 8.48. Same read-out and setting: next, `O=C(O)c1ccc2nc(Cc3cc(F)c(-c4cccc(OCc5cc(C(F)(F)F)cs5)n4)cc3F)n(C[C@@H]3CCO3)c2c1` [Example 10, 2-[[2,5-difluoro-4-[6-[[4-(trifluoromethyl)-2-thienyl]methoxy]-2-pyridyl]phenyl]methyl]-3-[[(2S)-oxetan-2-yl]methyl]benzimidazole-5-carboxylic acid]: 9.40. `N#Cc1cnc(COc2cccc(C3CCN(Cc4nc5ccc(C(=O)O)cc5n4C[C@@H]4CCO4)CC3)n2)s1` [Example 17, (S)-2-((4-(6-((5-cyanothiazol-2-yl)methoxy)pyridin-2-yl)piperidin-1-yl)methyl)-1-(oxetan-2-ylmethyl)-1H-benzo[d]imidazole-6-carboxylic acid]: the pEC50 was 7.62. The same measure, in the same setting: next, `O=C(O)c1ccc2nc(CN3CCC(c4cccc(OCc5cc(C(F)(F)F)cs5)n4)CC3)n(C[C@@H]3CCO3)c2c1` [Example 16, (S)-1-(oxetan-2-ylmethyl)-2-((4-(6-((4-(trifluoromethyl)thiophen-2-yl)methoxy)pyridin-2-yl)piperidin-1-yl)methyl)-1H-benzo[d]imidazole-6-carboxylic acid]: 8.39.

The target of the next assay is T1, GLP-1R. Put plainly: GLP-1R Activation - cAMP Assay 1. In kind it is cell-based. The conditions noted are these: cAMP increase in CHO cells stably expressing GLP-1R; 10-point dose response, 30 minutes incubation at 37° C. The protocol:
GLP-1R Activation—cAMP Assay 1
GLP-1R activation by a compound of the present disclosure was quantified by measuring cAMP increase in CHO cells stably expressing GLP-1R (MultiSpan product #C1267-1a). The cells were harvested and plated in growth medium (DMEM/F-12 (Corning product #10-090-CV) supplemented with 10% FBS (HyClone product #SH30071-03), penicillin/streptomycin (Corning product #30-002CI) and 10 µg/ml puromycin (Gibco product #A11138-03)) at 1,000 cells/well in a 384-well plate (Greiner product #781080). The cells were then incubated overnight at 37° C., 5% CO2. The next day, the medium was removed and the cells were washed with DPBS (Corning product #21-031-CM) before adding the assay medium (HBSS, Corning product #21-023-CV) with 20 mM Hepes (Gibco product #15630-080) and 0. 1% BSA (Rockland Immunochemicals product #BSA-1000)). Following the medium change, the cells were incubated for 1 hour at 37° C., 5% CO2. The tested GLP-1 compound was added to the cells in a 10-point dose response followed by a 30 minutes incubation at 37° C., 5% CO2. cAMP concentration increase was then detected using Cisbio's cAMP Gs Dynamic Kit (product #62AM4PEC) according to the manufacturer's protocol. The response was plotted against the log of the agonist concentration and fitted to a sigmoidal equation to determine the EC50.
Compound `COCCn1c(CN2CCC(c3cccc(OCc4csc5ccccc45)n3)CC2)nc2ccc(C(=O)O)cc21` [Example 13, 2-((4-(6-(benzo[b]thiophen-3-ylmethoxy)pyridin-2-yl)piperidin-1-yl)methyl)-1-(2-methoxyethyl)-1H-benzo] showed a pEC50 of 6.71. The same measure, in the same setting: next, `COCCn1c(CN2CCC(c3cccc(OCc4cnn(C)n4)n3)CC2)nc2ccc(C(=O)O)cc21` [Example 20, 1-(2-methoxyethyl)-2-((4-(6-((2-methyl-2H-1,2,3-triazol-4-yl)methoxy)pyridin-2-yl)piperidin-1-yl)methyl)-1H-benzo[d]imidazole-6-carboxylic acid]: 5.36. Take `COCCn1c(CN2CCC(c3cccc(OCc4ccc(C#N)s4)n3)CC2)nc2ccc(C(=O)O)cc21` [Example 2, 2-((4-(6-((5-cyanothiophen-2-yl)methoxy)pyridin-2-yl)piperidin-1-yl)methyl)-1-(2-methoxyethyl)-1H-benzo[d]imidazole-6-carboxylic acid]: the pEC50 is 7.33. Take `COCCn1c(CN2CCC(c3cccc(OCc4csc5cc(Cl)ccc45)n3)CC2)nc2ccc(C(=O)O)cc21` [Example 11, 2-((4-(6-((6-chlorobenzo[b]thiophen-3-yl)methoxy)pyridin-2-yl)piperidin-1-yl)methyl)-1-(2-methoxyethyl)-1H-benzo[d]imidazole-6-carboxylic acid]: the negative logarithm of the EC50 (pEC50) was 6.81.

Compound `COCCn1c(CN2CCC(c3cccc(OCc4ccsc4)n3)CC2)nc2ccc(C(=O)O)cc21` [Example 12, 1-(2-methoxyethyl)-2-((4-(6-(thiophen-3-ylmethoxy)pyridin-2-yl)piperidin-1-yl)methyl)-1H-benzo[d]imidazole-6-carboxylic acid] gave a pEC50 of 6.08.

For the compound `COCCn1c(CN2CCC(c3cccc(OCc4cnc(Cl)s4)n3)CC2)nc2ccc(C(=O)O)cc21` [Example 3, 2-[[4-[6-[(2-chlorothiazol-5-yl)methoxy]-2-pyridyl]-1-piperidyl]methyl]-3-(2-methoxyethyl)benzimidazole-5-carboxylic acid], the negative-log EC50 (pEC50) is 6.51. The same measure, in the same setting: next, `COCCn1c(CN2CCC(c3cccc(OCc4nnc(Cl)s4)n3)CC2)nc2ccc(C(=O)O)cc21` [Example 4]: 6.53. On the same count and under the same terms, next, `COCCn1c(CN2CCC(c3cccc(OCc4sc(C#N)cc4F)n3)CC2)nc2ccc(C(=O)O)cc21` [Example 1, 2-((4-(6-((5-cyano-3-fluorothiophen-2-yl)methoxy)pyridin-2-yl)piperidin-1-yl)methyl)-1-(2-methoxyethyl)-1H-benzo[d]imidazole-6-carboxylic acid]: 6.78; `COCCn1c(CN2CCC(c3cccc(OCc4cscn4)n3)CC2)nc2ccc(C(=O)O)cc21` [Example 19, 1-(2-methoxyethyl)-2-((4-(6-(thiazol-4-ylmethoxy)pyridin-2-yl)piperidin-1-yl)methyl)-1H-benzo[d]imidazole-6-carboxylic acid]: 5.23.

As to `COCCn1c(CN2CCC(c3cccc(OCc4nccs4)n3)CC2)nc2ccc(C(=O)O)cc21` [Example 18, 1-(2-methoxyethyl)-2-((4-(6-(thiazol-2-ylmethoxy)pyridin-2-yl)piperidin-1-yl)methyl)-1H-benzo[d]imidazole-6-carboxylic acid], the negative-log EC50 (pEC50) was 6.06.
